Key:
[1] = system: Parabacteroides distasonis ATCC 8503 "PDI.6"; test: Sugar-supported growth of commensal bacteria, PDI.6; type: cell-based; conditions: 0.5% w/v sugar, 37° C., 18-24 hours, anaerobic; OD600 divided by OD600 with 0.5% w/v dextrose
Protocol: (§1) An in vitro assay was performed to assess the ability of various bacterial strains, including commensals of the gastrointestinal tract, to utilize different sugars as growth substrates. This assay was designed to assess the ability of selected natural monosaccharides, disaccharides and synthetic sugars to promote the growth of microbiota associated with a healthy state. Bacterial strains were handled at all steps in an anaerobic chamber (AS-580, Anaerobe Systems) featuring a palladium catalyst. The chamber was initially made anaerobic by purging with an anaerobic gas mixture of 5% hydrogen, 5% carbon dioxide and 90% nitrogen and subsequently maintained in an anaerobic state using this same anaerobic gas mixture. Anaerobicity of the chamber was confirmed daily using Oxoid anaerobic indicator strips that change color in the presence of oxygen. All culture media, assay plates, other reagents and plastic consumables were pre-reduced in the anaerobic chamber for 24-48 hours prior to contact with bacteria. Sugars were prepared at 5% w/v in water, filter-sterilized and added to Costar 3370 assay plates for a final concentration of 0.5% w/v in the assay, with each microbiome regulator assayed in two non-adjacent wells and dextrose and water supplied as positive and negative controls.
(§2) Bacterial isolates were obtained from the American Type Culture Collection (ATCC) and Leibniz Institute DSMZ-German Institute of Microorganisms and Cell Cultures (DSMZ). Cultures of the Bacteroidetes Bacteroides caccae ATCC 43185 “BCA.26”, Bacteroides thetaiotaomicron ATCC 29741 “BTH.8”, Bacteroides cellulosilyticus DSM 14838 “BCE.71”, Parabacteroides distasonis ATCC 8503 “PDI.6” and Prevotella copri DSM 18205 “PCO.72”; the Clostridiales Clostridium scindens ATCC 35704 “CSC.32”, Dorea formicigenerans ATCC 27755 “DFO.36” and Ruminococcus obeum ATCC 29714 “ROB.74”; and the Bifidobacteria Bifidobacterium longum ATCC 15707 “BLO.16” and Bifidobacterium longum DSM 20088 “BLO.83”, were grown anaerobically in Chopped Meat Glucose broth (CMG, Anaerobe Systems), a pre-reduced enriched medium including lean ground beef, enzymatic digest of casein, yeast extract, potassium phosphate, dextrose, cysteine, hemin and Vitamin K1, for 18-48 hours at 37° C. Inocula were prepared by determining the optical density of each culture at […] (OD600) in a Costar 3370 polystyrene 96-well flat-bottom assay plate using a Biotek Synergy 2 plate reader with Gen5 2.0 All-In-One Microplate Reader Software according to manufacturer's protocol, and diluting the cells to OD600 0.01 final in defined and semi-defined media that were prepared without sugars. D. formicigenerans, P. distasonis and B. longum isolates were tested in 900 mg/L sodium chloride, 26 mg/L calcium chloride dihydrate, 20 mg/L magnesium chloride hexahydrate, 10 mg/L manganese chloride tetrahydrate, 40 mg/L ammonium sulfate, 4 mg/L iron sulfate heptahydrate, 1 mg/L cobalt chloride hexahydrate, 300 mg/L potassium phosphate dibasic, 1.5 g/L sodium phosphate dibasic, 5 g/L sodium bicarbonate, 0.125 mg/L biotin, 1 mg/L pyridoxine, […], 75 mg/L histidine, 75 mg/L glycine, 75 mg/L tryptophan, 150 mg/L arginine, 150 mg/L methionine, 150 mg/L threonine, 225 mg/L valine, 225 mg/L isoleucine, 300 mg/L leucine, 400 mg/L cysteine, and 450 mg/L proline (Theriot C M et al. Nat Commun. 2014; 5:3114), supplemented with 0-3.5% (v/v) CMG. B. thetaiotaomicron, B. caccae and B. cellulosyliticus were tested in 100 mM potassium phosphate buffer (pH 7.2), 15 mM sodium chloride, 8.5 mM ammonium sulfate, 4 mM L-cysteine, 1.9 μM hematin, 200 μM L-histidine, 100 μM magnesium chloride, 1.4 μM iron sulfate heptahydrate, 50 μM calcium chloride, 1 μg/mL vitamin K3 and 5 ng/mL vitamin B12 (Martens E C et al. Cell Host & Microbe 2008; 4, 447-457). […]

[2] = system: Dorea formicigenerans ATCC 27755 "DFO.36"; test: Sugar-supported growth of commensal bacteria, DFO.36; type: cell-based; conditions: 0.5% w/v sugar, 37° C., 18-24 hours, anaerobic; OD600 divided by OD600 with 0.5% w/v dextrose
Protocol: as §1, §2

[3] = system: panel of 10 commensals; test: Sugar-supported growth, whole panel of 10 commensals; type: cell-based; conditions: 0.5% w/v sugar, summary in words
Protocol: as §1, §2

[4] = system: Bacteroides caccae ATCC 43185 "BCA.26"; test: Sugar-supported growth of commensal bacteria, BCA.26; type: cell-based; conditions: 0.5% w/v sugar, 37° C., 18-24 hours, anaerobic; OD600 divided by OD600 with 0.5% w/v dextrose
Protocol: as §1, §2

[5] = system: Bifidobacterium longum ATCC 15707 "BLO.16"; test: Sugar-supported growth of commensal bacteria, BLO.16; type: cell-based; conditions: 0.5% w/v sugar, 37° C., 18-24 hours, anaerobic; OD600 divided by OD600 with 0.5% w/v dextrose
Protocol: as §1, §2

[6] = system: Clostridium scindens ATCC 35704 "CSC.32"; test: Sugar-supported growth of commensal bacteria, CSC.32; type: cell-based; conditions: 0.5% w/v sugar, 37° C., 18-24 hours, anaerobic; OD600 divided by OD600 with 0.5% w/v dextrose
Protocol: as §1, §2

[7] = system: Prevotella copri DSM 18205 "PCO.72"; test: Sugar-supported growth of commensal bacteria, PCO.72; type: cell-based; conditions: 0.5% w/v sugar, 37° C., 18-24 hours, anaerobic; OD600 divided by OD600 with 0.5% w/v dextrose
Protocol: as §1, §2

[8] = system: Bacteroides cellulosilyticus DSM 14838 "BCE.71"; test: Sugar-supported growth of commensal bacteria, BCE.71; type: cell-based; conditions: 0.5% w/v sugar, 37° C., 18-24 hours, anaerobic; OD600 divided by OD600 with 0.5% w/v dextrose
Protocol: as §1, §2

[9] = system: Bacteroides thetaiotaomicron ATCC 29741 "BTH.8"; test: Sugar-supported growth of commensal bacteria, BTH.8; type: cell-based; conditions: 0.5% w/v sugar, 37° C., 18-24 hours, anaerobic; OD600 divided by OD600 with 0.5% w/v dextrose
Protocol: as §1, §2

[10] = system: Bifidobacterium longum DSM 20088 "BLO.83"; test: Sugar-supported growth of commensal bacteria, BLO.83; type: cell-based; conditions: 0.5% w/v sugar, 37° C., 18-24 hours, anaerobic; OD600 divided by OD600 with 0.5% w/v dextrose
Protocol: as §1
Bacterial isolates were obtained from the American Type Culture Collection (ATCC) and Leibniz Institute DSMZ-German Institute of Microorganisms and Cell Cultures (DSMZ). Cultures of the Bacteroidetes Bacteroides caccae ATCC 43185 “BCA.26”, Bacteroides thetaiotaomicron ATCC 29741 “BTH.8”, Bacteroides cellulosilyticus DSM 14838 “BCE.71”, Parabacteroides distasonis ATCC 8503 “PDI.6” and Prevotella copri DSM 18205 “PCO.72”; the Clostridiales Clostridium scindens ATCC 35704 “CSC.32”, Dorea formicigenerans ATCC 27755 “DFO.36” and Ruminococcus obeum ATCC 29714 “ROB.74”; and the Bifidobacteria Bifidobacterium longum ATCC 15707 “BLO.16” and Bifidobacterium longum DSM 20088 “BLO.83”, were grown anaerobically in Chopped Meat Glucose broth (CMG, Anaerobe Systems), a pre-reduced enriched medium including lean ground beef, enzymatic digest of casein, yeast extract, potassium phosphate, dextrose, cysteine, hemin and Vitamin K1, for 18-48 hours at 37° C. Inocula were prepared by determining the optical density of each culture at […] (OD600) in a Costar 3370 polystyrene 96-well flat-bottom assay plate using a Biotek Synergy 2 plate reader with Gen5 2.0 All-In-One Microplate Reader Software according to manufacturer's protocol, and diluting the cells to OD600 0.01 final in defined and semi-defined media that were prepared without sugars. […]

[11] = system: Ruminococcus obeum ATCC 29714 "ROB.74"; test: Sugar-supported growth of commensal bacteria, ROB.74; type: cell-based; conditions: 0.5% w/v sugar, 37° C., 18-24 hours, anaerobic; OD600 divided by OD600 with 0.5% w/v dextrose
Protocol: as §1, §2

[12] = studies by McCance et al (J Biol Chem (1930) 24:795-804); cited from earlier work

SMILES | Average Normalized Growth (NGV), PDI.6 [1] | Average Normalized Growth (NGV), DFO.36 [2] | taxa or strains of the commensal panel whose growth was supported [3] | Average Normalized Growth (NGV), BCA.26 [4] | Average Normalized Growth (NGV), BLO.16 [5] | Average Normalized Growth (NGV), CSC.32 [6] | Average Normalized Growth (NGV), PCO.72 [7] | Average Normalized Growth (NGV), BCE.71 [8] | Average Normalized Growth (NGV), BTH.8 [9] | Average Normalized Growth (NGV), BLO.83 [10] | Average Normalized Growth (NGV), ROB.74 [11] | absorption by the gastrointestinal tract [12]
O=C[C@H](O)[C@@H](O)[C@@H](O)CO [L-arabinose] | − (<0.2) | +++ (>1) | supported some commensals from the taxa Bacteroidetes, Firmicutes, including Lachnospiraceae, and Bifidobacteria | +++ (>1) | ++ (0.6-1) | − (<0.2) | ++ (0.6-1) | ++ (0.6-1) | +++ (>1) | − (<0.2) | – | –
O=C(CO)[C@@H](O)[C@H](O)[C@H](O)CO [D-fructose] | +++ (>1) | +++ (>1) | supported some commensals from the taxa Bacteroidetes, Firmicutes, including Lachnospiraceae, and Bifidobacteria | ++ (0.6-1) | +++ (>1) | +++ (>1) | ++ (0.6-1) | +++ (>1) | ++ (0.6-1) | +++ (>1) | ++ (0.6-1) | –
O=C[C@H](O)[C@@H](O)[C@H](O)CO [D-xylose] | + (0.2-0.6) | − (<0.2) | supported some commensals from the taxa Bacteroidetes and Bifidobacteria | +++ (>1) | ++ (0.6-1) | − (<0.2) | ++ (0.6-1) | ++ (0.6-1) | +++ (>1) | – | − (<0.2) | –
O=C[C@@H](O)[C@H](O)[C@H](O)CO [arabinose] | – | – | – | – | – | – | – | – | – | – | – | are not
O=C[C@H](O)[C@H](O)[C@H](O)CO [ribose] | +++ (>1) | +++ (>1) | supported some commensals from the taxa Bacteroidetes and Firmicutes | − (<0.2) | − (<0.2) | +++ (>1) | − (<0.2) | + (0.2-0.6) | − (<0.2) | – | − (<0.2) | –
O=C[C@@H](O)[C@@H](O)[C@H](O)[C@H](O)CO [D-mannose] | +++ (>1) | − (<0.2) | supported some commensals from the taxa Bacteroidetes and Firmicutes | +++ (>1) | − (<0.2) | + (0.2-0.6) | − (<0.2) | +++ (>1) | +++ (>1) | – | ++ (0.6-1) | –
C[C@H](O)[C@@H](O)[C@@H](O)[C@H](O)C=O [L-fucose] | − (<0.2) | − (<0.2) | supported some commensals from the taxa Bacteroidetes and Firmicutes | +++ (>1) | − (<0.2) | − (<0.2) | − (<0.2) | + (0.2-0.6) | + (0.2-0.6) | – | ++ (0.6-1) | –
OC[C@H]1O[C@@H](O[C@H]2[C@H](O)[C@@H](O)C(O)O[C@@H]2CO)[C@H](O)[C@@H](O)[C@H]1O (stereo partly drawn) [lactose] | +++ (>1) | +++ (>1) | supported some commensals from the taxa Bacteroidetes, Firmicutes, including Lachnospiraceae, and Bifidobacteria | +++ (>1) | ++ (0.6-1) | +++ (>1) | +++ (>1) | +++ (>1) | +++ (>1) | +++ (>1) | ++ (0.6-1) | –
C[C@H](O)[C@H](O)[C@@H](O)[C@@H](O)C=O [L-rhamnose] | − (<0.2) | − (<0.2) | – | − (<0.2) | − (<0.2) | − (<0.2) | + (0.2-0.6) | – | + (0.2-0.6) | – | – | are not
